Key:
[1] = test system: primary human AML cells; format: in vivo, NOD-SCID mice; conditions: 100 mg/kg i.p. daily for three weeks, vs vehicle control
Experimental: FIG. 3. Tigecycline has anti-leukemia activity in vivo. (A, B) Human leukemia (OCI-AML2) were injected subcutaneously into the flank of SCID mice. Seven days after injection, once tumors were palpable, mice were treated with tigecycline (50 mg/kg or 100 mg/kg twice daily by i.p. injection) or vehicle control (n=10 per group). Fourteen days after injection of cells, mice were sacrificed, tumors excised and the volume and mass of the tumors were measured. The tumor mass and the mean volume+SD are shown. Differences in tumor volume and mass were analyzed by an unpaired t-test: * p<0.001. (C) Tumours from two control mice, and three tigecycline-treated mice were excised after 5 days of treatment and total proteins were extracted and analyzed by western blotting for Cox-1, Cox-2, Cox-4, and tubulin. […] Following treatment, human leukemia cell engraftment in the injected right femur was measured by FACS analysis for human CD45^+CD19^−CD33^+ cells. […] Six weeks later, human leukemia cell engraftment in the injected right femur was measured by FACS analysis for human CD45^+CD19^−CD33^+ cells. […]
To assess tigecycline in mouse models of primary AML, primary human AML cells were isolated form a fresh peripheral blood sample from a patient with AML. A frozen aliquot was thawed, counted and resuspended in PBS. […]

[2] = test system: bacterial protein synthesis; conditions: cited from earlier work
[3] = test system: primary AML patient samples; assay: Cell death by Annexin V staining, 48 hours; format: cell-based, human
Experimental: (§1) FIG. 2. Tigecycline induces cell death and inhibits clonogenic growth in primary AML cells preferential over normal hematopoietic cells. Mononuclear cells from peripheral blood of leukemia patients (blast count >80%) and normal G-CSF expanded donors was treated with increasing concentrations of tigecycline for 48 hours. Cell viability was measured by Annexin-PI flow cytometry staining. Cell viability is expressed as a mean percentage plus or minus SD (n=3) relative to DMSO-treated cells. Mononuclear cells from primary AML patient samples (A, B) and normal peripheral blood cells (C) were plated in methylcelluose with 5 μM of Tigecycline. (D) Colony forming units were counted at 7 days (AML) and 14 days (Normal) post plating. Percent colony formation is represented compared to DMSO-treated plated cells.
(§2) Primary human acute myeloid leukemia (AML) samples were isolated from fresh peripheral blood samples of consenting patients with AML. Similarly, primary normal hematopoietic cells were obtained from healthy consenting volunteers donating peripheral blood […] (PBSC) for stem cell transplantation. The mononuclear cells were isolated from the samples by Ficoll density centrifugation. Primary cells were cultured at 37° C. in IMDM supplemented with 20% FCS, 1 mM of L-glutamine and appropriate antibiotics. […]
(§3) Cell growth and viability was assessed by the MTS assay (Promega, Madison, Wis.) according to the manufacturer's instructions. Apoptosis and cell death was measured by Annexin V-fluoroscein isothiocyanate (FITC; Biovision Research Products, Mountain View, Calif.), propidium iodide staining and flow cytometry according to the manufacturer's instructions and as previously described^30.
(§4) Given the cytotoxicity of tigecycline towards leukemia cell lines, the ability of tigecycline to induce cell death in primary acute myeloid leukemia (AML) patient samples and normal hematopoietic cells was compared and evaluated. […] After incubation, cell viability was measured by Annexin V staining.

[4] = test system: primary normal hematopoietic cells (PBSC); assay: Cell death by Annexin V staining, 48 hours; format: cell-based, human; conditions: normal PBSC from G-CSF mobilized donors, n=5, 48 hours
Experimental: as §1, §2, §3, §4

[5] = test system: Complex I, II and IV; assay: Respiratory chain complex enzyme activity relative to citrate synthase; format: cell-based, human; conditions: TEX cells, 2.5 μM and 5 μM, 72 hours
Experimental: FIG. 4. Tigecycline decreases mitochondrial Cox-1 protein levels in TEX cells. (A) Cells from TEX, OCI-AML2 and two primary AML patients were treated with increasing concentrations (2.5 μM and 5 μM) of tigecycline for 36 and 48 hours of tigecycline. Total proteins were extracted and analyzed by western blotting for Cox-1, Cox-2, Cox-4, grp78, XIAP, actin and tubulin. (B) TEX and AML patient cells were treated with increasing concentrations (2.5 μM and 5 μM) of tigecycline. Cox-1, Cox-2, and Cox-4 mRNA expression relative 18S was determined by quantitative RT-PCR. Data is shown as mean±SD. (C) TEX cells were treated with increasing concentrations of tigecycline and chloramphenicol (CAP) for 72 hours. Complex I, II and IV enzyme activity relative to citrate synthase activity was determined as described in materials and methods. (D) Cells from TEX, primary AML patients, and normal donors were treated with increasing concentrations of tigecycline. Mitochondrial membrane potential (Δψ) was determined by staining cells with JC-1 dye, and flow cytometry analysis (Red/Green ratio). Reactive oxygen species generation (ROS) was determined by staining with h2-DCFDA and Dihydroethidium (DHE).
The effect of tigecycline treatment on enzyme activity of the respiratory chain complexes relative to the mitochondrial non-respiratory chain enzyme citrate synthase was examined. TEX leukemia cells were treated with tigecycline for […] and then respiratory chain enzyme relative to citrate synthase activity was analyzed. Equivalent tigecycline concentrations (2.5 μM and 5 μM) decreased enzyme activities of Complexes I and IV relative to citrate synthase, while complex II activity was less affected (FIG. 4C).

Q: For CN(C)c1cc(NC(=O)CNC(C)(C)C)c(O)c2c1C[C@H]1C[C@H]3[C@H](N(C)C)C(O)=C(C(N)=O)C(=O)[C@@]3(O)C(O)=C1C2=O [tigecycline], which “engraftment of human AML cells (CD45+CD33+CD19-) in marrow” value [1] is on record?
A: Its value is “significantly decreased”.

Q: And the “inhibition of bacterial protein synthesis, fold greater than minocycline” value ([2]; relative to minocycline)?
A: Its value is 3 fold.

Q: What about the “inhibition of bacterial protein synthesis, fold greater than tetracycline” value ([2]; relative to tetracycline) of the same molecule?
A: Its value is 20 fold.

Q: And the LD50 ([3]; more resistant group of patients, n=7, 48 hours)?
A: The LD50 was > 9 µM.

Q: What about the LD50 ([3]; sensitive subset of leukemia patients, n=13, 48 hours) of the same molecule?
A: Its LD50 is 5 µM.

Q: What about the LD50 [4] of the same molecule?
A: The LD50 was > 10 µM.

Q: And the “Complex I enzyme activity relative to citrate synthase” value [5]?
A: Its value is “decreased”.

Q: And the “Complex II enzyme activity relative to citrate synthase” value [5]?
A: Its value is “less affected”.

Q: What about the “Complex IV enzyme activity relative to citrate synthase” value [5] of the same molecule?
A: The value was “decreased”.

Reference: US20120329761A1, “USE OF TIGECYCLINE FOR TREATMENT OF CANCER” (UNIVERSITY HEALTH NETWORK, priority 2010, published 2012)
